This is an account of results in ChEMBL document CHEMBL4431297 (Medchemcomm, 2016).

Common to all, as to type: protein-complex assay
For assay [1], the target named is DNA gyrase (Escherichia coli, UniProt P0AES4+P0AES6, S83W). The experiment in a line: (§1) Inhibition of Escherichia coli JMtacA/JMtacB DNA gyrase subunit A2B2 S83W mutant using relaxed pBR322 DNA as substrate incubated for 30 mins in presence of ATP by ethidium bromide staining based agarose gel electrophoresis.
The subject of assay [2] is DNA gyrase (Escherichia coli), P0AES6+P0AES4 [UNDEFINED MUTATION]. The experiment in a line: Inhibition of Escherichia coli JMtacA/JMtacB DNA gyrase subunit A2B2 S83W mutant at 50 to 300 uM using relaxed pBR322 DNA as substrate incubated for 30 mins in presence of ATP by ethidium bromide staining based agarose gel electrophoresis.
For assay [3] the test system is unchanged. The description is as §1.
For assay [4], the target named is T1, DNA gyrase (Escherichia coli) (UniProt P0AES6+P0AES4). As to the kind of experiment: Inhibition of wild type Escherichia coli DNA gyrase subunit A2B2 at 100 uM using relaxed pBR322 DNA as substrate incubated for 30 mins in presence of ATP by ethidium bromide staining based agarose gel electrophoresis.
Assay [5] relates to DNA gyrase (Escherichia coli), P0AES6+P0AES4 [UNDEFINED MUTATION]. As to the kind of experiment: Inhibition of Escherichia coli JMtacA/JMtacB DNA gyrase subunit A2B2 S83W mutant at 50 uM using relaxed pBR322 DNA as substrate incubated for 30 mins in presence of ATP by ethidium bromide staining based agarose gel electrophoresis.
Assay [6] has the same test system. The experiment in a line: Inhibition of Escherichia coli JMtacA/JMtacB DNA gyrase subunit A2B2 S83W mutant at 25 uM using relaxed pBR322 DNA as substrate incubated for 30 mins in presence of ATP by ethidium bromide staining based agarose gel electrophoresis.
Assay [7] addresses T1, DNA gyrase (Escherichia coli). The experiment in a line: Inhibition of wild type Escherichia coli DNA gyrase subunit A2B2 using supercoiled pBR322 DNA as substrate assessed as stabilization of enzyme-DNA cleavage complex by measuring linear DNA bands at 50 to 100 uM incubated for 30 mins in presence of proteinase K/SDS and in absence of ATP by ethidium bromide staining based agarose gel electrophoresis.

Assay [8] deals with DNA gyrase (Escherichia coli), P0AES6+P0AES4 [UNDEFINED MUTATION]. As to the kind of experiment: Inhibition of Escherichia coli JMtacA/JMtacB DNA gyrase subunit A2B2 S83W mutant at 100 uM using relaxed pBR322 DNA as substrate incubated for 30 mins in presence of ATP by ethidium bromide staining based agarose gel electrophoresis.
For assay [9], the target named is T1, DNA gyrase (Escherichia coli). The experiment in a line: Inhibition of wild type Escherichia coli DNA gyrase subunit A2B2 using supercoiled pBR322 DNA as substrate assessed as stabilization of enzyme-DNA cleavage complex by measuring linear DNA bands at 100 uM incubated for 30 mins in presence of proteinase K/SDS and in absence of ATP by ethidium bromide staining based agarose gel electrophoresis.

Assay [10] deals with DNA gyrase (Escherichia coli, UniProt P0AES4+P0AES6). The experiment in a line: Inhibition of wild type Escherichia coli DNA gyrase subunit A2B2 using relaxed pBR322 DNA as substrate incubated for 30 mins in presence of ATP by ethidium bromide staining based agarose gel electrophoresis.
Assay [11] deals with T1, DNA gyrase (Escherichia coli). As to the kind of experiment: Inhibition of wild type Escherichia coli DNA gyrase subunit A2B2 using supercoiled pBR322 DNA as substrate assessed as stabilization of enzyme-DNA cleavage complex by measuring linear DNA bands at 1 uM incubated for 30 mins in presence of proteinase K/SDS and in absence of ATP by ethidium bromide staining based agarose gel electrophoresis.

The target is the same in assay [12]. As to the kind of experiment: Inhibition of wild type Escherichia coli DNA gyrase subunit A2B2 using supercoiled pBR322 DNA as substrate assessed as stabilization of enzyme-DNA cleavage complex by measuring linear DNA bands at 10 to 100 uM incubated for 30 mins in presence of proteinase K/SDS and in absence of ATP by ethidium bromide staining based agarose gel electrophoresis.

Structures are written as SMILES. The source made the active and inactive calls. No cut-off for these calls is given here.

Consider `COC(=O)/C=C/C=C/C=C/C=C/C(=O)Nc1c(O)c2ccc(O)c(Cl)c2oc1=O`, for which the concentration for half-maximal inhibition (IC50) on DNA gyrase [1] was 70 µM.
For `Nc1cc2ccccc2oc1=O`, the inhibition entry in [2] is “inactive”.
As for `CCOC(=O)c1cn(C2CC2)c2cc(N3CCN(C(=O)CCCCCCCCC(=O)OC)CC3)c(F)cc2c1=O`, the inhibition entry in assay [3] and in [4] was “inactive” each time.
As for `CC(=O)Nc1cc2ccccc2oc1=O`, the inhibition result in [5] was “inactive”.
For the compound `CCOC(=O)c1cn(C2CC2)c2cc(N3CCN(C(=O)CCCCCCCCC(=O)Nc4cc5ccccc5oc4=O)CC3)c(F)cc2c1=O`, the inhibition entry in assay [3] and in assay [4] was “inactive” throughout.
For `O=C(O)CCCCCCCCC(=O)N1CCN(c2cc3c(cc2F)c(=O)c(C(=O)O)cn3C2CC2)CC1`, the inhibition entry in assay [6] was “inactive”. In addition, the inhibition result in [7] is “Active”.
As for `CC(=O)O[C@@H]1[C@@H](C)O[C@@H](c2ccc3c(c2O)[C@@H](O)[C@]24O[C@@]2(C3=O)[C@@]2(O)C(=O)C=C(C)C[C@@]2(O)C[C@@H]4O)C[C@H]1OC(=O)/C=C/C=C/C=C/C=C/C(=O)O`, the IC50 on DNA gyrase [1] came out at 50 µM.
Turning to `O=C(CCCCCCCCC(=O)N1CCN(c2cc3c(cc2F)c(=O)c(C(=O)O)cn3C2CC2)CC1)Nc1ccccc1`, the inhibition result in [8] is “inactive”. In addition, in assay [9], the inhibition result was “Active”.
`CCOC(=O)c1cn(C2CC2)c2cc(N3CCNCC3)c(F)cc2c1=O` [CIPROFLOXACIN ETHYL ESTER]: the inhibition result in assay [3] is “Active”. For the same compound, on DNA gyrase [10], the IC50 came out at 10 µM.
As to `CC(=O)O[C@@H]1[C@@H](C)O[C@@H](c2ccc3c(c2O)[C@@H](O)[C@]24O[C@@]2(C3=O)[C@@]2(O)C(=O)C=C(C)C[C@@]2(O)C[C@@H]4O)C[C@H]1OC(=O)/C=C/C=C/C=C/C=C/C(=O)Nc1c(O)c2ccc(O)c(Cl)c2oc1=O`, the inhibition entry in assay [11] is “inactive”.
As for `O=C(CCCCCCCCC(=O)N1CCN(c2cc3c(cc2F)c(=O)c(C(=O)O)cn3C2CC2)CC1)Nc1cc2ccccc2oc1=O`, the IC50 on DNA gyrase [1] stood at 3 µM. Moreover, in assay [12], the inhibition result is “Active”.
On to `CCOC(=O)c1cn(C2CC2)c2cc(N3CCN(C(=O)CCCCCCCCC(=O)Nc4ccccc4)CC3)c(F)cc2c1=O`, for which the inhibition entry in assay [3] and in assay [4] was “inactive” in each case.
